Results taken from PubChem BioAssay AID328 (DTP/NCI, 2004).
Values joined by “and” are separate entries in the source; they are usually repeats but may differ in a detail not shown here. Equal entries are not always repeated. Toxic doses and inconclusive results are not listed. How the source made its calls: active means survival T/C of 150% or more; inactive means T/C below 125% in these data.

System: BDF1 mice, P388 leukemia ip, median survival T/C
Experiment: NCI In Vivo Anticancer Drug Screen. Data for tumor model P388 Leukemia (intraperitoneal) in B6D2F1 (BDF1) mice
Settings: endpoint: median survival time, higher = longer survival
Procedure, shortened: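 Survival ratio, drug arm over vehicle arm, in mice with a transplanted tumour.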

[1] = dose: 25.0 mg/kg/injection, schedule: Q01DX009 (ip), vehicle: Klucel (hydroxypropylcellulose) (HPC)
[2] = dose: 25.0 mg/kg/injection, schedule: Q01DX009 (ip), vehicle: saline with Tween-80
[3] = dose: 50.0 mg/kg/injection, schedule: Q01DX009 (ip), vehicle: saline with Tween-80
[4] = dose: 100.0 mg/kg/injection, schedule: Q01DX009 (ip), vehicle: saline with Tween-80
[5] = dose: 200.0 mg/kg/injection, schedule: Q01DX009 (ip), vehicle: saline with Tween-80
[6] = dose: 400.0 mg/kg/injection, schedule: Q01DX009 (ip), vehicle: saline with Tween-80
[7] = dose: 100.0 mg/kg/injection, schedule: Q01DX001 (ip), vehicle: Klucel (hydroxypropylcellulose) (HPC)
[8] = dose: 100.0 mg/kg/injection, schedule: Q04DX003 (ip), vehicle: Klucel (hydroxypropylcellulose) (HPC)
[9] = dose: 200.0 mg/kg/injection, schedule: Q01DX001 (ip), vehicle: Klucel (hydroxypropylcellulose) (HPC)
[10] = dose: 200.0 mg/kg/injection, schedule: Q04DX003 (ip), vehicle: Klucel (hydroxypropylcellulose) (HPC)
[11] = dose: 400.0 mg/kg/injection, schedule: Q01DX001 (ip), vehicle: Klucel (hydroxypropylcellulose) (HPC)
[12] = dose: 400.0 mg/kg/injection, schedule: Q04DX003 (ip), vehicle: Klucel (hydroxypropylcellulose) (HPC)
[13] = dose: 25.0 mg/kg/injection, schedule: Q01DX009 (ip), vehicle: saline
[14] = dose: 50.0 mg/kg/injection, schedule: Q01DX009 (ip), vehicle: saline
[15] = dose: 100.0 mg/kg/injection, schedule: Q01DX009 (ip), vehicle: saline
[16] = dose: 100.0 mg/kg/injection, schedule: Q04DX003 (ip), vehicle: saline with Tween-80
[17] = dose: 200.0 mg/kg/injection, schedule: Q04DX003 (ip), vehicle: saline with Tween-80
[18] = dose: 400.0 mg/kg/injection, schedule: Q04DX003 (ip), vehicle: saline with Tween-80
[19] = dose: 200.0 mg/kg/injection, schedule: Q01DX009 (ip), vehicle: saline
[20] = dose: 50.0 mg/kg/injection, schedule: Q01DX009 (ip), vehicle: Klucel (hydroxypropylcellulose) (HPC)
[21] = dose: 100.0 mg/kg/injection, schedule: Q01DX009 (ip), vehicle: Klucel (hydroxypropylcellulose) (HPC)
[22] = dose: 200.0 mg/kg/injection, schedule: Q01DX009 (ip), vehicle: Klucel (hydroxypropylcellulose) (HPC)
[23] = dose: 12.5 mg/kg/injection, schedule: Q01DX009 (ip), vehicle: saline
[24] = dose: 400.0 mg/kg/injection, schedule: Q01DX009 (ip), vehicle: Klucel (hydroxypropylcellulose) (HPC)

Measured: T/C

CC(C)CCNc1ncnc2[nH]ncc12
inactive: dose: 5.5 mg/kg/injection, schedule: Q01DX009 (ip), vehicle: Klucel (hydroxypropylcellulose) (HPC) 95 % of control | dose: 8.2 mg/kg/injection, schedule: Q01DX009 (ip), vehicle: Klucel (hydroxypropylcellulose) (HPC) 100 % of control | dose: 18.75 mg/kg/injection, schedule: Q04DX003 (ip), vehicle: Klucel (hydroxypropylcellulose) (HPC) 86 % of control | [1] 90 % of control | [2] 90 % of control | dose: 37.5 mg/kg/injection, schedule: Q04DX003 (ip), vehicle: Klucel (hydroxypropylcellulose) (HPC) 104 % of control | [3] 90 % of control | dose: 75.0 mg/kg/injection, schedule: Q04DX003 (ip), vehicle: Klucel (hydroxypropylcellulose) (HPC) 86 % of control

O=C(O)Cn1c(C(F)(F)F)nc2nc(Cl)c(Cl)nc21
inactive: [4] 90 % of control | [5] 90 % of control | [6] 100 % of control

O=C(c1ccccc1)C1(Br)CCCCC1
inactive: dose: 75.0 mg/kg/injection, schedule: Q01DX009 (ip), vehicle: Klucel (hydroxypropylcellulose) (HPC) 104 % of control | [7] 100 % of control | [8] 109 % of control | dose: 150.0 mg/kg/injection, schedule: Q01DX009 (ip), vehicle: Klucel (hydroxypropylcellulose) (HPC) 95 % of control | [9] 104 % of control | [10] 104 % of control | dose: 300.0 mg/kg/injection, schedule: Q01DX009 (ip), vehicle: Klucel (hydroxypropylcellulose) (HPC) 86 % of control | [11] 104 % of control | [12] 109 % of control

NC1=NC(c2ccc(Cl)cc2)N(c2ccc(S(=O)(=O)Nc3ncccn3)cc2)C(N)=N1 (stereo unspecified)
inactive: dose: 25.0 mg/kg/injection, schedule: Q04DX003 (ip), vehicle: saline sonified 104 % of control | dose: 50.0 mg/kg/injection, schedule: Q04DX003 (ip), vehicle: saline sonified 104 % of control | dose: 100.0 mg/kg/injection, schedule: Q04DX003 (ip), vehicle: saline sonified 95 % of control

CN=C1N[N+]2=C(C)CCCC2S1 (stereo unspecified)
inactive: [13] 97 % of control | [14] 91 % of control | [15] 99 % of control

CCCCCCCCCCOc1ccc(C=O)c(OC)c1
inactive: [7] 100 % of control | [9] 100 % of control | [11] 104 % of control

CC(C)(C)NC(=O)NCc1cccnc1
inactive: [16] 91 % of control | [17] 95 % of control | [18] 100 % of control

Cc1nc2ccccc2n1C[c-]1[c-][c-][c-][c-]1.[Fe].[c-]1[c-][c-][cH-][c-]1
inactive: [3] 91 % of control | [4] 113 % of control | [5] 105 % of control

Cc1ccc(S(=O)(=O)/C=C(/I)c2ccccc2)cc1
inactive: dose: 6.25 mg/kg/injection, schedule: Q01DX009 (ip), vehicle: saline with Tween-80 124 % of control | dose: 12.5 mg/kg/injection, schedule: Q01DX009 (ip), vehicle: saline with Tween-80 106 % of control | [2] 106 % of control | [3] 92 % of control and 109 % of control | [4] 109 % of control | [16] 114 % of control | [5] 106 % of control | [17] 106 % of control | [6] 100 % of control | [18] 97 % of control

Cc1nc2ccc(O)cc2cc1CO
inactive: [13] 95 % of control | [14] 100 % of control | [15] 99 % of control | [19] 109 % of control | dose: 400.0 mg/kg/injection, schedule: Q01DX009 (ip), vehicle: saline 111 % of control

O=c1oc2ccccc2n1Cc1ccc(Cl)cc1
inactive: dose: 25.0 mg/kg/injection, schedule: Q01DX005 (ip), vehicle: saline with Tween-80 92 % of control | dose: 50.0 mg/kg/injection, schedule: Q01DX005 (ip), vehicle: saline with Tween-80 99 % of control | dose: 200.0 mg/kg/injection, schedule: Q01DX005 (ip), vehicle: saline with Tween-80 94 % of control

Clc1cc(Cl)c2c(c1)COCO2
inactive: [1] 104 % of control | [20] 100 % of control | [21] 109 % of control | [8] 90 % of control | [22] 90 % of control | [10] 100 % of control | [12] 100 % of control

CCCCCCC(N)C(C)O (stereo unspecified)
inactive: [23] 105 % of control | [13] 100 % of control | [3] 101 % of control | [14] 105 % of control

CC(=O)CC(=O)Nc1ccc(Cl)cc1Cl
inactive: [21] 96 % of control | [8] 87 % of control | [22] 104 % of control | [10] 87 % of control | [24] 88 % of control | [12] 95 % of control

Cc1ccc(S)c(S)c1
inactive: dose: 3.12 mg/kg/injection, schedule: Q01DX009 (ip), vehicle: saline 97 % of control | dose: 6.25 mg/kg/injection, schedule: Q01DX009 (ip), vehicle: saline 103 % of control | [23] 103 % of control | [13] 112 % of control

C=CCOCC1CO1 (stereo unspecified)
inactive: [23] 99 % of control | [13] 106 % of control | [14] 100 % of control | [15] 109 % of control | [19] 117 % of control

COc1ccc2c(c1)N(C(=O)N(CCOC(=O)Nc1ccccc1)CCOC(=O)Nc1ccccc1)c1ccccc1S2
inactive: [2] 95 % of control | [3] 91 % of control

CC1CC2=CC(=O)C=CC2(C)C2CCC3(C)C(O)CCC3C12 (stereo unspecified)
inactive: dose: 1.56 mg/kg/injection, schedule: Q01DX009 (ip), vehicle: Klucel (hydroxypropylcellulose) (HPC) 86 % of control | dose: 3.12 mg/kg/injection, schedule: Q01DX009 (ip), vehicle: Klucel (hydroxypropylcellulose) (HPC) 107 % of control | dose: 6.25 mg/kg/injection, schedule: Q01DX009 (ip), vehicle: Klucel (hydroxypropylcellulose) (HPC) 99 % of control | [1] 95 % of control | [20] 91 % of control | [14] 90 % of control | [21] 95 % of control and 97 % of control | [8] 91 % of control | [22] 96 % of control and 97 % of control | [10] 95 % of control | [24] 86 % of control and 88 % of control | [12] 87 % of control

Cc1noc(C)c1CON
inactive: [23] 91 % of control | [13] 91 % of control | [14] 95 % of control

CC(=O)n1cc(C2CC(=O)OC3=C2C(=O)CCC3)c2ccccc21 (stereo unspecified)
inactive: [4] 94 % of control | [16] 98 % of control | [5] 100 % of control | [17] 93 % of control | [6] 102 % of control | [18] 93 % of control

S=c1cc(-c2ccco2)ss1
inactive: [2] 112 % of control | [3] 95 % of control | [4] 98 % of control | [16] 110 % of control | [5] 102 % of control | [17] 100 % of control | [6] 107 % of control | [18] 101 % of control

O=C(O)c1c(I)c(I)c(I)c(I)c1C(=O)c1ccccc1
inactive: dose: 44.0 mg/kg/injection, schedule: Q04DX003 (ip), vehicle: saline 109 % of control | dose: 67.0 mg/kg/injection, schedule: Q04DX003 (ip), vehicle: saline with Tween-80 104 % of control | dose: 67.0 mg/kg/injection, schedule: Q04DX003 (ip), vehicle: saline 104 % of control | [4] 111 % of control | [16] 104 % of control | dose: 100.0 mg/kg/injection, schedule: Q04DX003 (ip), vehicle: saline 118 % of control | dose: 150.0 mg/kg/injection, schedule: Q04DX003 (ip), vehicle: saline with Tween-80 109 % of control | dose: 150.0 mg/kg/injection, schedule: Q04DX003 (ip), vehicle: saline 113 % of control | [5] 111 % of control | [17] 110 % of control | [18] 120 % of control
